Data as given in ChEMBL document CHEMBL1150873, “A new lysine derivative and new 3-bromopyrrole carboxylic acid derivative from two marine sponges” (J Nat Prod, 1998).
Converted amounts (≈) assume the structure as drawn.

How the values were obtained:
Artemia = assay: (§1) Toxicity in brine shrimp; format: organism-based; settings: in vivo
[1] = as §1; format: organism-based; settings: artemia, in vivo
P388 = assay: Cytotoxicity against mouse P388 cells; format: functional, cell-based

O=C1CCNC(=O)c2[nH]c(Br)cc21
Activity (Artemia): Not Active

C=C(C)[C@H]1CCC[C@@]2(C)CCC[C@@](C)(SC#N)[C@@H]12
LC50 [1]: 50 µg/mL (≈ 190 µM)

O=C1NCC(O)n2cc(Br)cc21 (stereo not drawn)
Activity (Artemia): Not Active

O=C(O)/C1=N/CCCC[C@@H](C(=O)O)N1
Activity (Artemia): Not Active

C=C(C)[C@H]1CCC[C@@]2(C)CCC[C@@](C)(NC=O)[C@@H]12
IC50 (P388): 1.2 µg/mL (≈ 4.81 µM)
LC50 [1]: 50 µg/mL (≈ 200 µM)

[C-]#[N+][C@]1(C)CCC[C@]2(C)CCC[C@H](C(=C)C)[C@@H]21
IC50 (P388): 8.3 µg/mL (≈ 35.9 µM)

O=C1CCNC(=O)c2[nH]ccc21 [ALDISIN]
Activity (Artemia): Not Active
